In series [1] the test system is Organotypic hippocampal slice cultures (CA1 cell layer). The experiment in a line: Hypoxic neuronal damage in organotypic hippocampal slice cultures (PI fluorescence in CA1). The class given is cell-based, Wistar rat. As to the method: Organotypic hippocampal slice cultures were prepared using the basic method of Pringle et al (1996, 1997) modified as follows:
Wistar rat pups (8-11 days old) were decapitated and the hippocampus rapidly dissected into ice-cold Gey's balanced salt solution supplemented with 4.5 mg/ml glucose. Slices were separated and plated onto Millicell CM culture inserts (4 per well) and maintained at 37′C./5% CO2 for 14 days. Maintenance medium consisted of 25% heat-inactivated horse serum, 25% Hank's balanced salt solution (HBSS) and 50% minimum essential medium with added Earle's salts (MEM) supplemented with 1 mM glutamine and 4.5 mg/ml glucose. Medium was changed every 3-4 days.
Experimental hypoxia was performed as described previously (Pringle e al., 1996; 1997). Briefly, cultures were transferred to serum free medium (SFM—75% MEM, 25% HBSS supplemented with 1 mM glutamine and 4.5 mg/ml glucose) containing 5 μg/ml of the fluorescent exclusion dye propidium iodide (PI). Cultures were allowed to equilibrate in SFM for 60 minutes prior to imaging. PI fluorescence was detected using a Leica inverted microscope fitted with a rhodamine filter set. Any cultures in which PI fluorescence was detected at this stage were excluded from further study. Hypoxia was induced by transferring cultures to SEM (+PI) which had been saturated with 95% N2/5% CO2. Culture plates (without lids) were then sealed into an airtight chamber in which the atmosphere was saturated with 95% N2/5% CO2 by continuously blowing through gas at 10 L/min for ten minutes before being sealed and placed in the incubator for 170 mins (total time of hypoxia was therefore 180 mins). At the end of the hypoxic period cultures were returned to normoxic SFM containing PI and placed back in the incubator for 24 hours.
Neuronal damage was assessed as described previously (Pringle et al., 1996; 1997) using either NIH Image 1.60 running on an Apple IIsi computer or OpenLab 2.1 (Improvision) running on a Macintosh G4/400. Images were captured using a monochrome camera and saved onto optical disk for offline analysis. Light transmission images were captured prior to the addition of drugs, and PI fluorescence images recorded at the end of the 24-hour post-hypoxia recovery period. The area of the CA1 cell layer was determined from the transmission image. The area of PI fluorescence in CA1 was measured using the density slice function within NIH Image or OpenLab, and neuronal damage expressed as the percentage of the CA1 in which PI fluorescence was detected above background.
Steroid compounds were prepared by making an initial 1 mg/ml solution in ethanol and further diluting down in SFM. Compounds were added to the cultures for 45 minutes prior to hypoxia, during the hypoxic episode and during the post-hypoxic recovery period. Control experiments consisted of cultures treated with vehicle alone.

Series [2] has as its system hippocampal CA1 pyramidal cells. Nature of the series: Global cerebral ischemia in rats (4 vessel occlusion), surviving CA1 neurons by Nissl staining. The class given is in vivo, male Wistar rats. As to the method: Cerebral ischemia was induced by four-vessel-occlusion (4VO) in male Wistar rats (250-280 g). Both vertebral arteries were occluded by electrocauterization in pentobarbital anesthesia (60 mg/kg i.p.). The animals were allowed to recover for 24 hours with free access to water but not food. The next day the carotid arteries were exposed under 2% halothane in 30% oxygen/70% nitrous oxide anesthesia and were occluded for 10 minutes using microvascular claps. Subsequently, both clamps were removed and both arteries were inspected for immediate reperfusion. During the operation and the following 3 hours normothermia of the animals (37.5±0.5° C.) was maintained by using a thermostatically controlled heating blanket connected to a rectal thermometer. For control, in sham-operated animals both vertebral arteries were cauterized in pentobarbital anesthesia and both common carotid arteries were exposed but not clamped under 2% halothane in 30% oxygen/70% nitrous oxide anesthesia the following day. The wound was treated with lidocaine gel and then sutured. The animals were kept under a heating lamp at 30° C. environmental temperature until they regained consciousness.
Seven groups of animals were investigated: • 1. (n=8) steroid compound, 7β-OH EPIA (0.1 mg/kg, i. v. via tail vein, three injections: 15 minutes prior to the induction of ischemia, during ischemia and 5 minutes after reperfusion); • 2. (n=8) steroid compound, 7β-OH EPIA (0.3 mg/kg, i. v. three injections as described in 1.); • 3. (n=8) steroid compound, 7β-OH EPIA (1 mg/kg, i. v., three injections as described in 1.); • 4. (n=8) NBQX (disodium salt, because more water soluble) as reference substance and positive control (TOCRIS, Germany, 30 mg/kg, i. p., three injections as described in 1.); • 5. (n=8) received vehicle (0.9% NaCl, containing 100 μl Ethanol) three injections as described in 1.); • 6. (n=8) ischemia alone; • 7. (n=8) sham operated controls.
The substances were dissolved in 100 μl Ethanol and finally diluted with 0.9% NaCl.
After a survival time of 7 days after ischemia, all animals were perfusion fixed transcardially with 4% paraformaldehyde. The brains were then removed carefully and postfixed in the same fixative for 2 hours. After cryoprotection in 30% sucrose, the brains were rapidly frozen in isopentane and stored at −80° C. Twenty-micrometer cryostat sections comprising the hippocampal formation were Niss1 stained with toluidine blue or NeuroTrace fluorescence.
The severity of neuronal damage in the hippocampal CA1 region after ischemia was evaluated by the number of surviving neurons using Niss1 staining. The mean number of morphologically intact neurons per 400 μm length was calculated in CA1 region for each group. Cell counting was performed in 3-5 serial sections per animal and 6 times 400 μm CA1 area per section using a light microscope equipped with a 20× objective. The data were statistically analyzed by paired Student's t-test. Data were presented as mean±SEM.

The mark [3] stands for this setting: Experiment 1, 100 nM pre-, during and post-hypoxia.
Where [4] appears, read: Experiment 1, 100 nM present pre-, during and post-hypoxia, control hypoxia 25.5 ± 6.4.
Setting [5] is: 30 mg/kg, three injections, 10 min global ischemia, 7 days survival.

For the molecule `C[C@]12CC[C@H](O)C[C@@H]1C[C@H](O)[C@@H]1[C@@H]2CC[C@]2(C)C(=O)CC[C@@H]12` [Example 7βOH-EPIA, 7β-hydroxyepiandrosterone], in series [1] (setting [3]), the “Reduction of hypoxic damage in CA1 (in words)” value was “significantly reduced”. The “% Damage in CA1” value in series [1] (setting [4]) stood at 9.0 ± 4.7 %; in series [1] (Experiment 2, 1 nM, control hypoxia 31.9 ± 4.7), 20.6 ± 7.2%; in series [1] (Experiment 2, 10 nM, control hypoxia 31.9 ± 4.7) it was 11.9 ± 4.7 %; in series [1] (Experiment 2, 100 nM, control hypoxia 31.9 ± 4.7), 14.3 ± 5.0 %. Moreover, the “Neuroprotection against hypoxia (in words)” value in series [1] (Experiment 2, 1 nM) is recorded as “activity was lost”; in series [1] (Experiment 2, 10 nM and 100 nM), “significantly neuroprotective”. Moreover, the “Neuroprotective effect (in words, t-test)” value in series [2] (0.1 mg/kg (p=0.01) and 0.3 mg/kg (p=0.0008) i.v.) was “highly significant neuroprotective effect”. Moreover, the “Neuroprotective effect on CA1 pyramidal cells compared to the sham operated group (FIG. 1C)” value was 74.8% in series [2] (0.1 mg/kg i.v., three injections, 10 min global ischemia, 7 days survival) and 83.9% in series [2] (0.3 mg/kg i.v., three injections, 10 min global ischemia, 7 days survival). Besides, the “Neuroprotection of CA1 pyramidal cells (in words)” value in series [2] (1.0 mg/kg i.v., three injections) is listed as “only a tendency to neuroprotection, but the effect was not significant”. Moreover, in series [2] (injected i.v. prior, during and after ischemia, all experiments), the “Behavioral abnormalities of the animals” value is “never observed any behavioral abnormalities”.

Turning to `C[C@]12CC[C@H](O)C[C@@H]1C[C@@H](O)[C@@H]1[C@@H]2CC[C@]2(C)C(=O)CC[C@@H]12` [Example 7αOH-EPIA, 7α-Hydroxy-EPIA], the “Reduction of hypoxic damage in CA1 (in words)” value in series [1] (setting [3]) is reported as “significantly reduced”. For the same molecule, the “% Damage in CA1” value in series [1] (setting [4]) stood at 4.0 ± 2.9 %.

Take `NS(=O)(=O)c1cccc2c1c([N+](=O)[O-])cc1nc(O)c(O)nc12` [NBQX, 2,3-dihydroxy-6-nitro-7-sulfamoyl-benzo(F)quinoxaline, reference compound]: the “Neuroprotection in CA1 pyramidal cells compared to the ischemia group (in words, t-test)” value in series [2] (30 mg/kg, three injections) is listed as “significant (p=0.03) neuroprotection”. Also, in series [2] (setting [5]), the “Neuroprotection compared to the ischemia alone” value came out at 47.5% and the “Protective effect compared to the sham operated animals” value came to 68.5%.

As for `C[C@]12CC[C@H](O)CC1=C[C@H](O)[C@@H]1[C@@H]2CC[C@]2(C)C(=O)CC[C@@H]12` [Example 7βOH-DHEA, 7β-hydroxy-DHEA], the “Reduction in neuronal damage (in words)” value in series [1] (Experiment 3, 100 nM pre-, during and post-hypoxia) was “large, highly significant, reduction in neuronal damage”. Moreover, the “% Damage in CA1” value in series [1] (Experiment 3, 100 nM pre-, during and post-hypoxia, control hypoxia 29.0 ± 6.2) worked out at 4.2 ± 1.9 %.

The record behind these values is patent US20100130459A1, “NEUROPROTECTIVE 7-BETA-HYDROXYSTEROIDS” (Hunter-Fleming Limited, priority 2000, published 2010).
